Usually Kd stands for the concentration at which binding is half-saturated.

Structures are written as SMILES. Where “and” joins values, the source holds several entries; their conditions need not be identical. Equal values may be shown once. Read-outs that look alike come from different tables or passages of the source.

The source of these data is PMC6541369, “Stereo- and regioselective hydroboration of 1-exo-methylene pyranoses: discovery of aryltriazolylmethyl C-galactopyranosides as selective galectin-1 inhibitors” (Beilstein Journal of Organic Chemistry, 2019).

In test [1] the target is T1, galectin-3 (Homo sapiens, UniProt P17931).
T1 construct: made in house
T1 sequence (P17931 whole entry): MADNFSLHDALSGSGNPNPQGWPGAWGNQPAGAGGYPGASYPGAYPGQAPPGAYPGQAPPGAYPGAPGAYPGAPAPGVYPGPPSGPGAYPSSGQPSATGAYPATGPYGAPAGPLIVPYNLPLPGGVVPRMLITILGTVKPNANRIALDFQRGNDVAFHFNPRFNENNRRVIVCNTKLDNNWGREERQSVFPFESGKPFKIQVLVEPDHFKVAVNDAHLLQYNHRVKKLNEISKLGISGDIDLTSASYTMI
The test is described as follows: competitive fluorescence polarization assay, galectin-3. The format is binding. Conditions: galectin-3 0.2 µM, fluorescent probe 20 nM; for Kd: read-out: Dissociation constant KD ± SEM, galectin-3. The procedure: Galectin-1, -3, -4C (C-terminal CRD), -4N (N-terminal CRD), -7, -8C, -8N, -9C, and -9N affinities for (aryltriazolyl)methyl galactopyranosyls 1a–n were determined in a competitive fluorescence polarization titration assay [[…]]. Compounds 1a–n had millimolar or higher affinities for all galectins except for galectins-1 and -3. […] Of particular interest is the different difluorinated aryls 1e–g, which show a reversed selectivity pattern. They display twofold preference for galectin-3 (1g), but their poor affinities limit their use as effective galectin-3 inhibitors. […] Monosaccharide derivatives with somewhat higher affinity for galectin-1 are known; dissociation constants down to 62 µM and selectivity of 8 over galectin-3 [34]. However, these inhibitors are larger and carry double modifications with an anomeric thiophenyl aglycon combined with a heteroaryltriazole moiety at galactose C3 that both form affinity and selectivity-enhancing interactions with galectin-1. Unfortunately, attempts to combine the anomeric 4-fluorophenyltriazolylmethyl moiety of compound 1b with such a galactose C3-thiazolyltriazole substituent reported to enhance affinity for galectin-1 [34] failed in our hands, why other additional substituents to combine with the 4-fluorophenyltriazolylmethyl moiety of compound 1b remain to be discovered.
(§1) Human galectin-1 [36] and galectin-3 [37] were expressed and purified as earlier described. Fluorescence polarization experiments were performed on a PheraStarFS plate reader with software PHERAstar Mars version 2.10 R3 (BMG, Offenburg, Germany). Specific experimental conditions were a galectin-1 concentration of 0.5 µM together with the fluorescent probe (3,3’-dideoxy-3-[4-(fluorescein-5-ylcarbonylaminomethyl)-1H-1,2,3-triazol-1-yl]-3’-(3,5-dimethoxybenzamido)-1,1’-sulfanediyl-di-β-D-galactopyranoside) concentration of 20 nM and a galectin-3 concentration of 0.2 µM together with the fluorescent probe (3,3’-dideoxy-3-[4-(fluorescein-5-ylcarbonylaminomethyl)-1H-1,2,3-triazol-1-yl]-3’-(3,5-dimethoxybenzamido)-1,1’-sulfanediyl-di-β-D-galactopyranoside) concentration of 20 nM, respectively. […] Dissociation constants average and SEM were calculated from two to eight single point measurements showing between 20–80% inhibition.
For orientation: Polarisation of emitted light reports the rotation of a fluorescent probe.

For test [2], the target named is T2, Human galectin-1 (Homo sapiens, UniProt P09382).
T2 construct: made in house
T2 sequence (P09382 whole entry): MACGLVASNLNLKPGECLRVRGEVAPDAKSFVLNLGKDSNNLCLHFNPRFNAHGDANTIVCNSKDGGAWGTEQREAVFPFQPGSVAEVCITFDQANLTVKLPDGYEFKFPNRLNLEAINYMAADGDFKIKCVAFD
Briefly: competitive fluorescence polarization assay, galectin-1. Type of test: binding. Conditions: for Kd: galectin-1 0.5 µM, fluorescent probe 20 nM, read-out: Dissociation constant KD ± SEM, galectin-1. The procedure: Galectin-1, -3, -4C (C-terminal CRD), -4N (N-terminal CRD), -7, -8C, -8N, -9C, and -9N affinities for (aryltriazolyl)methyl galactopyranosyls 1a–n were determined in a competitive fluorescence polarization titration assay [[…]].
as §1

The target in test [3] is T1, galectin-3. Details: method as in PMID 15889175. Conditions: reference compounds; read-out: Dissociation constant KD, galectin-3; cited from earlier work.
The target in test [4] is T2, Human galectin-1. Details: method as in PMID 15889175. The conditions noted are these: reference compounds; read-out: Dissociation constant KD, galectin-1; cited from earlier work.
Where [5] appears, read: ratio of galectin-3 KD to galectin-1 KD.

Take `OC[C@H]1O[C@H](Cn2cc(-c3ccccc3)nn2)[C@H](O)[C@@H](O)[C@H]1O` [1a, 1,2-Dideoxy-1-(4-phenyl-1H-1,2,3-triazol-1-yl)-β-D-galactoheptulose]: the Kd on galectin-3 [1] amounted to 870 ± 37 µM; on Human galectin-1 [2], 600 ± 48 µM. The “Selectivity Galectin-1/3” value on Human galectin-1 [2] (setting [5]) came to 1.5.
With `Cc1cccc(-c2cn(C[C@H]3O[C@H](CO)[C@H](O)[C@H](O)[C@H]3O)nn2)c1` [1i, 1,2-Dideoxy-1-[4-(3-methylphenyl)-1H-1,2,3-triazol-1-yl]-β-D-galactoheptulose], at galectin-3 [1], the “Dissociation constant KD ± SEM, galectin-3” value is on record as “undetectable” and the dissociation constant Kd is above 3000 µM. The Kd on Human galectin-1 [2] is 990 ± 23 µM. Besides, the “Selectivity Galectin-1/3” value at Human galectin-1 [2] (setting [5]) is reported as above 3.
As to `OC[C@H]1O[C@H](Cn2cc(-c3ccc(F)c(F)c3)nn2)[C@H](O)[C@@H](O)[C@H]1O` [1e, 1,2-Dideoxy-1-[4-(3,4-difluorophenyl)-1H-1,2,3-triazol-1-yl]-β-D-galactoheptulose], the Kd turned out to be 610 ± 160 µM on galectin-3 [1] and 860 ± 150 µM at Human galectin-1 [2]. In addition, the “Selectivity Galectin-1/3” value at Human galectin-1 [2] (setting [5]) amounted to 0.7.
As for `CO[C@@H]1O[C@H](CO)[C@@H](O[C@@H]2O[C@H](CO)[C@H](O)[C@H](O)[C@H]2O)[C@H](O)[C@H]1O` [compound 12, methyl β-lactoside], the Kd was 220 µM on galectin-3 [3] and 190 µM on Human galectin-1 [4]. The “Selectivity Galectin-1/3” value at Human galectin-1 [2] (reference compounds, ratio from KD values of ref 35) is listed as 1.2.
In the case of `OC[C@H]1O[C@H](Cn2cc(-c3cccc(F)c3)nn2)[C@H](O)[C@@H](O)[C@H]1O` [1c, 1,2-Dideoxy-1-[4-(3-fluorophenyl)-1H-1,2,3-triazol-1-yl]-β-D-galactoheptulose], the Kd was 720 ± 64 µM at galectin-3 [1] and 1200 ± 120 µM at Human galectin-1 [2]. Also, at Human galectin-1 [2] (setting [5]), the “Selectivity Galectin-1/3” value turned out to be 0.6.
On to `OC[C@H]1O[C@H](Cn2cc(-c3ccc(OC(F)(F)F)cc3)nn2)[C@H](O)[C@@H](O)[C@H]1O` [1j, 1,2-Dideoxy-1-[4-(4-trifluoromethoxyphenyl)-1H-1,2,3-triazol-1-yl]-β-D-galactoheptulose], for which the values for the Kd at galectin-3 [1] and on Human galectin-1 [2] were 700 ± 52 µM and 500 ± 59 µM, respectively. Further, the “Selectivity Galectin-1/3” value at Human galectin-1 [2] (setting [5]) stood at 1.4.
As to `OC[C@H]1O[C@H](Cn2cc(-c3ccc4ccccc4c3)nn2)[C@H](O)[C@@H](O)[C@H]1O` [1n, 1,2-Dideoxy-1-(4-naphth-2-yl-1H-1,2,3-triazol-1-yl)-β-D-galactoheptulose], the Kd on galectin-3 [1] stood at 1700 ± 190 µM; at Human galectin-1 [2], 1500 ± 290 µM. Moreover, the “Selectivity Galectin-1/3” value at Human galectin-1 [2] (setting [5]) is 1.1.
As to `OC[C@H]1O[C@H](Cn2cc(-c3ccc(F)cc3)nn2)[C@H](O)[C@@H](O)[C@H]1O` [1b, 1,2-Dideoxy-1-[4-(4-fluorophenyl)-1H-1,2,3-triazol-1-yl]-β-D-galactoheptulose], the values for the dissociation constant (Kd) at galectin-3 [1] and on Human galectin-1 [2] were 710 ± 36 µM and 170 ± 2 µM, respectively. Besides, the “Selectivity Galectin-1/3” value on Human galectin-1 [2] (setting [5]) was 4 and 4.2.
With `OC[C@H]1O[C@H](Cn2cc(-c3cccc4ccccc34)nn2)[C@H](O)[C@@H](O)[C@H]1O` [1l, 1,2-Dideoxy-1-(4-naphth-1-yl-1H-1,2,3-triazol-1-yl)-β-D-galactoheptulose], the Kd turned out to be 470 ± 95 µM on galectin-3 [1] and 180 ± 20 µM on Human galectin-1 [2]. Further, the “Selectivity Galectin-1/3” value at Human galectin-1 [2] (setting [5]) is listed as 2.6.
The like results for `OC[C@H]1O[C@H](Cn2cc(-c3ccccc3F)nn2)[C@H](O)[C@@H](O)[C@H]1O` [1d, 1,2-Dideoxy-1-[4-(2-fluorophenyl)-1H-1,2,3-triazol-1-yl]-β-D-galactoheptulose] were, in that order, 500 ± 23 µM, 390 ± 38 µM and 1.3.
With `OC[C@H]1O[C@H](Cn2cc(-c3cc(F)cc(F)c3)nn2)[C@H](O)[C@@H](O)[C@H]1O` [1f, 1,2-Dideoxy-1-[4-(3,5-difluorophenyl)-1H-1,2,3-triazol-1-yl]-β-D-galactoheptulose], the Kd at galectin-3 [1] was determined as 790 ± 48 µM; on Human galectin-1 [2], 1100 ± 43 µM. The “Selectivity Galectin-1/3” value on Human galectin-1 [2] (setting [5]) is recorded as 0.7.
Consider `OC[C@H]1O[C@H](Cn2cc(-c3ccc(C(F)(F)F)cc3)nn2)[C@H](O)[C@@H](O)[C@H]1O` [1k, 1,2-Dideoxy-1-[4-(4-trifluoromethylphenyl)-1H-1,2,3-triazol-1-yl]-β-D-galactoheptulose], for which the dissociation constant Kd amounted to 830 ± 38 µM at galectin-3 [1] and 240 ± 61 µM on Human galectin-1 [2]. The “Selectivity Galectin-1/3” value at Human galectin-1 [2] (setting [5]) is on record as 3.5.
With `Cc1ccc(-c2cn(C[C@H]3O[C@H](CO)[C@H](O)[C@H](O)[C@H]3O)nn2)cc1` [1h, 1,2-Dideoxy-1-[4-(4-methylphenyl)-1H-1,2,3-triazol-1-yl]-β-D-galactoheptulose], on galectin-3 [1], the “Dissociation constant KD ± SEM, galectin-3” value is recorded as “undetectable” and the dissociation constant Kd is above 3000 µM. In addition, the dissociation constant Kd at Human galectin-1 [2] was 1000 ± 130 µM. The “Selectivity Galectin-1/3” value on Human galectin-1 [2] (setting [5]) is above 3.
On to `OC[C@H]1O[C@@H](Cn2cc(-c3ccc(-c4ccccc4)cc3)nn2)[C@H](O)[C@@H](O)[C@H]1O` [1m, 1,2-Dideoxy-1-[4-(4-biphenyl)-1H-1,2,3-triazol-1-yl]-β-D-galactoheptulose], for which the Kd was 1200 ± 11 µM at galectin-3 [1] and 710 ± 12 µM at Human galectin-1 [2]. Moreover, the “Selectivity Galectin-1/3” value on Human galectin-1 [2] (setting [5]) was found to be 1.7.
As to `OC[C@H]1O[C@H](Cn2cc(-c3ccc(F)cc3F)nn2)[C@H](O)[C@@H](O)[C@H]1O` [1g, 1,2-Dideoxy-1-[4-(2,4-difluorophenyl)-1H-1,2,3-triazol-1-yl]-β-D-galactoheptulose], the figures for the dissociation constant (Kd) on galectin-3 [1] and at Human galectin-1 [2] were 490 ± 55 µM and 1100 ± 16 µM, respectively. Moreover, on Human galectin-1 [2] (setting [5]), the “Selectivity Galectin-1/3” value is recorded as 0.4.
